This note sets out measurements from US7166598B2, “Piperazine derivatives” (Astellas Pharma Inc., priority 1998, dated 2007).

Turning to `COC[C@@H]1CN(CCN2CCN(C(=O)c3cc(C(F)(F)F)cc(C(F)(F)F)c3)[C@H](Cc3ccc(F)cc3)C2)CCO1.Cl.Cl`, the melting point (commonly the temperature, or range, at which the solid turns liquid) fell in the range of 129 to 133 °C. For `Cl.Cn1cc(CN2CCN(C(=O)c3cc(C(F)(F)F)cc(C(F)(F)F)c3)[C@H](Cc3ccc(Cl)cc3)C2)cn1`, the melting point was 210 to 245 °C (dec.). The figure for `COc1cc(C(=O)N2CCN(Cc3cccnc3)C[C@H]2Cc2ccc(Cl)cc2)cc(C(F)(F)F)c1.Cl.Cl` is 60 to 80 °C; for `COc1cc(C(=O)N2CCN(CCCc3cccnc3)C[C@H]2Cc2ccc(Cl)cc2)cc(C(F)(F)F)c1.Cl.Cl` it is 60 to 100 °C; for `COc1cc(C(=O)N2CCN(Cc3cnn(C)c3)C[C@H]2Cc2ccc(F)cc2)cc(C(F)(F)F)c1.Cl` it is 225.6 to 228.4 °C.

With `COc1cc(C(=O)N2CCN(Cc3cccnc3)C[C@H]2Cc2ccc(F)cc2)cc(C(F)(F)F)c1.Cl.Cl`, the melting point was 81.4 to 84.3 °C.

`Cl.Cn1cc(CN2CCN(C(=O)c3cc(C(F)(F)F)cc(C(F)(F)F)c3)[C@H](Cc3ccc(Cl)c(O)c3)C2)cn1` had a melting point of 159 to 163 °C.

Turning to `COc1cc(C(=O)N2CCN(Cc3cnn(C)c3)C[C@H]2Cc2ccc(C(F)(F)F)cc2)cc(C(F)(F)F)c1.Cl`, the melting point is 218 to 223 °C. For `COc1cc(C(=O)N2CCN(Cc3cccnc3)C[C@H]2Cc2ccc(Cl)c(O)c2)cc(C(F)(F)F)c1.Cl.Cl` the value was 215 to 224 °C; for `CNc1cc(C(=O)N2CCN(CCN3CCO[C@H](COC)C3)C[C@H]2Cc2ccc(C)c(O)c2)cc(C(F)(F)F)c1.Cl.Cl`, 159 to 170 °C; for `COC[C@@H]1CN(CCN2CCN(C(=O)c3cc(-n4cccc4)cc(C(F)(F)F)c3)[C@H](Cc3ccc(C)c(O)c3)C2)CCO1.Cl.Cl`, 159 to 170 °C.

On to `Cc1ccc(C[C@@H]2CN(CCN3[C@H](C)COC[C@@H]3C)CCN2C(=O)c2cc(C(F)(F)F)cc(C(F)(F)F)c2)cc1O.Cl.Cl`, for which the melting point was 210 to 220 °C.

`COC[C@@H]1CN(CCCN2CCN(C(=O)c3cc(C(F)(F)F)cc(C(F)(F)F)c3)[C@H](Cc3ccc(C)c(O)c3)C2)CCO1.Cl.Cl` displayed a melting point of 150 to 170 °C. The molecule `Cc1ccc(C[C@@H]2CN(CCc3cccnc3)CCN2C(=O)c2cc(C(F)(F)F)cc(C(F)(F)F)c2)cc1O.Cl.Cl` displayed a melting point of 90 to 120 °C. The figure for `Cc1ccc(C[C@@H]2CN(C/C=C\c3cccnc3)CCN2C(=O)c2cc(C(F)(F)F)cc(C(F)(F)F)c2)cc1O.Cl.Cl` is 85 to 130 °C; for `COC[C@@H]1CN(CC#CCN2CCN(C(=O)c3cc(C(F)(F)F)cc(C(F)(F)F)c3)C(Cc3ccc(C)c(O)c3)C2)[C@@H](C)CO1.Cl.Cl` (stereo partly drawn) it is 110 to 135 °C. For `C[C@@H]1CN(CCN2CCN(C(=O)c3cc([N+](=O)[O-])cc(C(F)(F)F)c3)[C@H](Cc3ccc(Cl)cc3)C2)C[C@H](C)O1.Cl.Cl` the value was 133.3 to 136.2 °C; for `C[C@@H]1CN(CCN2CCN(C(=O)c3cc(N(C)C)cc(C(F)(F)F)c3)[C@H](Cc3ccc(Cl)cc3)C2)C[C@H](C)O1.Cl.Cl`, 148.2 to 153.3 °C. For `C[C@@H]1CN(CCN2CCN(C(=O)c3cc(C(F)(F)F)cc(S(C)(=O)=O)c3)[C@H](Cc3ccc(Cl)cc3)C2)C[C@H](C)O1.Cl.Cl` the value was 138.4 to 142.5 °C.

As for `CS(=O)(=O)c1cc(C(=O)N2CCN(CCN3CCc4ncccc4C3)C[C@H]2Cc2ccc(Cl)cc2)cc(C(F)(F)F)c1.Cl.Cl.Cl`, the melting point fell in the range of 198 to 213 °C. The figure for `CN(C)S(=O)(=O)c1cc(C(=O)N2CCN(CCN3CCc4ncccc4C3)C[C@H]2Cc2ccc(Cl)cc2)cc(C(F)(F)F)c1.Cl.Cl.Cl` is 209 to 226 °C; for `Cl.Cl.Cl.O=C(c1cc(-n2cccc2)cc(C(F)(F)F)c1)N1CCN(CCN2CCc3ncccc3C2)C[C@H]1Cc1ccc(Cl)cc1` it is 184 to 191 °C; for `COC[C@@H]1CN(CCN2CCN(C(=O)c3cc(C(F)(F)F)cc(C(F)(F)F)c3)C(Cc3ccc(C)c(O)c3)C2)C(C)(C)CO1.Cl.Cl` (stereo partly drawn) it is 150 to 180 °C.

In the case of `Cc1ccc(C[C@@H]2CN(Cc3nc(N)no3)CCN2C(=O)c2cc(C(F)(F)F)cc(C(F)(F)F)c2)cc1O.Cl.Cl`, the melting point lay within 160 to 170 °C.

`COC[C@@H]1CN(CCN2CCN(C(=O)c3cc(C(F)(F)F)cc(C(F)(F)F)c3)[C@H](Cc3ccc(C)c(N4CCCC4)c3)C2)CCO1.Cl.Cl.Cl` came in with a melting point of 160 to 165 °C.

Turning to `COc1cc(C[C@@H]2CN(CCN3CC4CCC(C3)O4)CCN2C(=O)c2cc(C(F)(F)F)cc(C(F)(F)F)c2)ccc1F.Cl.Cl`, the melting point lay within 163 to 178 °C. For `CC1(C)CN(CCN2CCN(C(=O)c3cc(C(F)(F)F)cc(C(F)(F)F)c3)[C@H](Cc3ccc(C(F)(F)F)cc3)C2)CCO1.Cl.Cl` the value was 215 to 231 °C; for `COC[C@@H]1C[C@@H](OC)CN1CCN1CCN(C(=O)c2cc(C(F)(F)F)cc(C(F)(F)F)c2)[C@H](Cc2ccc(F)c(OC)c2)C1.Cl.Cl`, 128 to 134 °C.

In turn, `COc1cc(C[C@@H]2CN(CCN3C[C@H](OC)[C@@H](OC)C3)CCN2C(=O)c2cc(C(F)(F)F)cc(C(F)(F)F)c2)ccc1F.Cl.Cl` yielded a melting point of 112 to 120 °C.

`COC[C@@H]1CN(CCN2CCN(C(=O)c3cc(C(F)(F)F)cc(C(F)(F)F)c3)[C@H](Cc3ccc(OC)cc3)C2)CCO1.Cl.Cl` returned a melting point of 146 to 149 °C. For `COC[C@@H]1C[C@@H](OC)CN1CCN1CCN(C(=O)c2cc(C(F)(F)F)cc(C(F)(F)F)c2)[C@H](Cc2ccc(C(F)(F)F)cc2)C1.Cl.Cl` the value was 56.59 °C; for `COC[C@H]1CCC[C@@H](COC)N1CCN1CCN(C(=O)c2cc(C(F)(F)F)cc(C(F)(F)F)c2)[C@H](Cc2ccc(C(F)(F)F)cc2)C1.Cl.Cl`, 147 to 151 °C; for `CSc1cc(C(=O)N2CCN(CCN3CCc4ncccc4C3)C[C@H]2Cc2ccc(C(F)(F)F)cc2)cc(C(F)(F)F)c1.Cl.Cl`, 190 to 210 °C. The figure for `COc1cc(C[C@@H]2CN(CCN3C[C@@H](C)O[C@@H](C)C3)CCN2C(=O)c2cc(SC)cc(C(F)(F)F)c2)ccc1F.Cl.Cl` is 62.5 to 82.4 °C; for `COc1cc(C[C@@H]2CN(CCN3C[C@@H](C)O[C@@H](C)C3)CCN2C(=O)c2cc(-c3ccncc3)cc(C(F)(F)F)c2)ccc1F.Cl.Cl.Cl` it is 137.6 to 142.5 °C. `COC[C@@H]1CN(CCN2CCN(C(=O)c3cc(SC)cc(C(F)(F)F)c3)[C@H](Cc3ccc(Cl)cc3)C2)CCO1.Cl.Cl`: the melting point lay in the range of 140 to 146 °C. The figure for `COC[C@@H]1CN(CCN2CCN(C(=O)c3cc(F)cc(C(F)(F)F)c3)[C@H](Cc3ccc(Cl)cc3)C2)CCO1.Cl.Cl` is 199 to 204 °C; for `COC[C@@H]1CN(CCN2CCN(C(=O)c3cc(F)cc(C(F)(F)F)c3)[C@H](Cc3ccc(C(F)(F)F)cc3)C2)CCO1.Cl.Cl` it is 173 to 176 °C; for `COC[C@@H]1CN(CCN2CCN(C(=O)c3cc(F)cc(C(F)(F)F)c3)[C@H](Cc3ccc(Cl)c(O)c3)C2)CCO1.Cl.Cl` it is 176 to 178 °C. For `COc1cc(C(=O)N2CCN(CC#CCN3CCOCC3(C)C)C[C@H]2Cc2ccc(Cl)c(O)c2)cc(C(F)(F)F)c1.Cl.Cl` the value was 187 to 195 °C. With `COc1cc(C(=O)N2CCN(CCN3CCc4ncccc4C3)C[C@H]2Cc2ccc(Cl)c(O)c2)cc(C(F)(F)F)c1.Cl.Cl.Cl`, the melting point was 225 to 240 °C (dec.). For `COC[C@@H]1CN(CCN2CCN(C(=O)c3cc(C(F)(F)F)cc(C(F)(F)F)c3)[C@H](Cc3ccc(Cl)c(O)c3)C2)CCO1.Cl.Cl` the value was 160 to 169 °C. `COc1cc(C[C@@H]2CN(CCN3CCC(F)(F)CC3)CCN2C(=O)c2cc(C(F)(F)F)cc(C(F)(F)F)c2)ccc1F.Cl.Cl` returned a melting point of 240 to 243 °C. Molecule `Cl.Cl.O=C(c1cc(C(F)(F)F)cc(C(F)(F)F)c1)N1CCN(CCN2CCC(F)(F)CC2)C[C@H]1Cc1ccc(F)c(O)c1` registered a melting point of 190 to 200 °C. Molecule `COc1cc(C[C@@H]2CN(CCN3C[C@@H](C)O[C@@H](C)C3)CCN2C(=O)c2cc(C(F)(F)F)cc(C(F)(F)F)c2)ccc1C(F)(F)F.Cl.Cl` came in with a melting point of 160 to 170 °C. `COc1cc(C(=O)N2CCN(CCN3C[C@@H](C)O[C@@H](C)C3)C[C@H]2Cc2ccc(C(F)(F)F)c(OC)c2)cc(C(F)(F)F)c1.Cl.Cl` registered a melting point of 125 to 135 °C. Regarding `COc1cc(C(=O)N2CCN(CCN3CCc4ncccc4C3)C[C@H]2Cc2ccc(C(F)(F)F)c(OC)c2)cc(C(F)(F)F)c1.Cl.Cl.Cl`, the melting point lay within 190 to 200 °C. The figure for `COc1cc(C(=O)N2CCN(CCN3C[C@@H](C)O[C@@H](C)C3)C[C@H]2Cc2ccc(C(F)(F)F)cc2)cc(C(F)(F)F)c1.Cl.Cl` is 139 to 151 °C; for `COC[C@@H]1CN(CCN2CCN(C(=O)c3cc(C(F)(F)F)cc(C(F)(F)F)c3)[C@H](Cc3ccc(Cl)cc3)C2)CCO1.Cl.Cl` it is 90 to 120 °C; for `Cl.Cl.O=C(c1cc(C(F)(F)F)cc(C(F)(F)F)c1)N1CCN(CCN2CCC(F)(F)CC2)C[C@H]1Cc1ccc(Cl)cc1` it is 250 to 255 °C.

In turn, `COC[C@@H]1CN(CCN2CCN(C(=O)c3cc(OC)cc(C(F)(F)F)c3)[C@H](Cc3ccc(Cl)cc3)C2)CCO1.Cl.Cl` displayed a melting point of 70 to 90 °C. As to `COc1cc(C(=O)N2CCN(CC#CCN3CCOCC3(C)C)C[C@H]2Cc2ccc(Cl)cc2)cc(C(F)(F)F)c1.Cl.Cl`, the melting point was 110 to 140 °C.

In turn, `COc1cc(C(=O)N2CCN(CCN3CCC(F)(F)CC3)C[C@H]2Cc2ccc(Cl)cc2)cc(C(F)(F)F)c1.Cl.Cl` returned a melting point of 220 to 250 °C. For `C[C@@H]1CN(CCN2CCN(C(=O)c3cc(C(F)(F)F)cc(C(F)(F)F)c3)[C@H](Cc3ccc(F)cc3)C2)C[C@H](C)O1.Cl.Cl` the value was 89 to 110.2 °C. For `COc1cc(C(=O)N2CCN(CCN3CCC(F)(F)CC3)C[C@H]2Cc2ccc(F)cc2)cc(C(F)(F)F)c1.Cl.Cl` the value was 258.4 to 261.4 °C; for `COc1cc(C(=O)N2CCN(CCN3CCc4ncccc4C3)C[C@H]2Cc2ccc(F)cc2)cc(C(F)(F)F)c1.Cl.Cl.Cl`, 148.7 to 152.3 °C. For `COC[C@@H]1CN(CCN2CCN(C(=O)c3cc(OC)cc(C(F)(F)F)c3)[C@H](Cc3ccc(Cl)c(O)c3)C2)CCO1.Cl.Cl` the value was 160 to 168 °C.
